This note sets out measurements from patent US7939563B2, “Remedy for hypertension” (Kao Corporation, priority 2001, dated 2011).

In data set [1] the test system is spontaneously hypertensive male rats (SHR). As to the kind of experiment: Measurement of an antihypertensive effect: oral administration, systolic blood pressure of the caudal artery. The class given is in vivo, rat. The following applies: 50 mg/Kg oral. On the procedure:
After each of 15 week-old, spontaneously hypertensive male rats (“SHR”) was accustomed to sphygmomanometric operation by preliminarily measuring its blood pressure for 7 successive days using a commercially available noninvasive sphygmomanometer for rats (manufactured by Softlon Co., Ltd.), the evaluation test was started. The rats were all bred under conditions (in a breeding room in a rat region) at a room temperature of 25±1° C., humidity of 55±10% RH and illumination for 12 hours (from 7:00 am to 7:00 pm).
In the test plot (Comparative Example), a solution of ferulic acid (50 mg/kg as a dose) in physiological saline was employed. In Test plot 2, Test plot 3, Test plot 4, Test plot 5 and Test plot 6, a solution of chlorogenic acid (50 mg/kg as a dosage) in physiological saline, oryzanol (50 mg/kg as a dosage), curcumin (50 mg/kg as a dosage), phenylethyl caffeate (50 mg/kg as a dosage) and rosmarinic acid (50 mg/kg as a dosage) were used, respectively. In each test plot, physiological saline was employed as a control. Each of the samples was orally administered.
SHRs were fasted overnight and divided into groups, each consisting of 5 rats. Systolic blood pressures of the caudal artery were measured prior to administration, and several times during 30 minutes to 24 hours after administration
The test results thus obtained were expressed by the mean value (%) and […] (SE) of the changing ratio (%) in systolic blood pressure.
A lowering ratio of the systolic blood pressure measured during 30 minutes to 24 hours each after administration relative to the systolic blood pressure prior to administration is shown in Table 1.

A short description of data set [2]: Blood levels of chlorogenic acid, caffeic acid and ferulic acid after oral chlorogenic acid in SHR. The class given is in vivo, rat. Set-up: unit not given here. The following applies: 200 mg/kg chlorogenic acid oral once. The method, then:
To the SHR, 200 mg/kg of chlorogenic acid was orally administered once.
SHRs were fasted overnight and then divided into groups, each consisting of 5 rats.

Data set [3] has as its system spontaneously hypertensive male rats (SHR). Kind of data set: Identification of an antihypertensive component: intravenous administration, systolic blood pressure of the carotid artery. The conditions noted are these: anesthetized 15 week-old SHR, 5 μg mol/kg in physiological saline, intravenous via femoral vein catheter. Type of data set: in vivo, rat. On the procedure: Its electrocardiograph was recorded by an electrocardiogram. A sample was injected to the femoral vein through a catheter. After the rats were accustomed sufficiently to the sphygmomanometric operation, the evaluation test was started. The rats were all bred under conditions (in a breeding room in a rat region) at a room temperature of 25±1° C., humidity of 55±10% RH and illumination for 12 hours (from 7:00 am to 7:00 pm). In the control plot, physiological saline was employed. […] Through a catheter, the sample was intravenously administered and while administration, systolic blood pressures of the carotid artery were measured with the passage of time.

Data set [4] is described as follows: Blood levels after 6 weeks of a beverage mixture containing an extract of raw coffee beans, liquid chromatography. The class given is in vivo. The conditions noted are these: human, plasma, oral; read-out: blood level 24 hours after administration of chlorogenic acid. On the procedure: The blood levels of chlorogenic acid, caffeic acid and ferulic acid were measured using liquid chromatography.

Data set [5] in a line: Blood level time course of ferulic acid after administration. Type of data set: in vivo.
Where [6] appears, read: time 0 (prior to administration).

On to `O=C(/C=C/c1ccc(O)c(O)c1)O[C@H]1[C@H](O)C[C@](O)(C(=O)O)C[C@H]1O` [4-chlorogenic acid, 4-caffeoylquinic acid], for which the “changing ratio in systolic blood pressure (mean)” value (“changing ratio” for short) is on record as 0% in data set [1] (setting [6]), −8.5% in data set [1] (time 6 after administration), −9.1% in data set [1] (time 12 after administration) and −11.0% in data set [1] (time 24 after administration).
For `COc1cc(/C=C/C(=O)CC(=O)/C=C/c2ccc(O)c(OC)c2)ccc1O` [curcumin], the “changing ratio” value in data set [1] (setting [6]) was 0%; in data set [1] (time 6 after administration), −15.2%; in data set [1] (time 12 after administration), −3.5%; in data set [1] (time 24 after administration) it was −5.3%.
For the compound `O=C(/C=C/c1ccc(O)c(O)c1)O[C@@H]1C[C@](O)(C(=O)O)C[C@@H](O)[C@H]1O` [5-chlorogenic acid, 5-caffeoylquinic acid], the “blood level after the administration of chlorogenic acid” value (“blood level after the administration” for short) in data set [2] (setting [6]), in data set [2] (time 3), in data set [2] (time 6), in data set [2] (time 9), in data set [2] (time 12) and in data set [2] (time 24) was 0 each time.
Consider `O=C(O)/C=C/c1ccc(O)c(O)c1` [caffeic acid], for which the “fluctuation in systolic blood pressure of the carotid artery” value (“fluctuation in systolic blood pressure” for short) in data set [3] is given as “Fluctuations in the blood pressure was not recognized”. The “blood level after the administration” value is listed as 0 in data set [2] (setting [6]); 0.07 in data set [2] (time 3); 0.179 in data set [2] (time 6); 0.166 in data set [2] (time 9); 0.05 in data set [2] (time 12); 0 in data set [2] (time 24). Further, in data set [4], the concentration at 24 h was determined as 95.4 ng/mL.
For `O=C(/C=C/c1ccc(O)c(O)c1)O[C@H](Cc1ccc(O)c(O)c1)C(=O)O` [rosemaric acid, rosmarinic acid], the “changing ratio” value in data set [1] (setting [6]) is 0%; in data set [1] (time 6 after administration), −6.4%; in data set [1] (time 12 after administration), 0.9%; in data set [1] (time 24 after administration), 2.2%.
On the same counts, the results for `O=C(/C=C/c1ccc(O)c(O)c1)OCCc1ccccc1` [phenylethyl caffeic acid, phenylethyl caffeate] are 0%, −13.7%, −1.3% and −0.7%.
As for oryzanol, the “changing ratio” value in data set [1] (setting [6]) is given as 0%; in data set [1] (time 1 after administration), −15.2%; in data set [1] (time 2 after administration) it was −12.8%; in data set [1] (time 4 after administration) it was −13.8%.
Regarding `O=C(O)[C@]1(O)C[C@@H](O)[C@@H](O)[C@H](O)C1` [quinic acid], the “fluctuation in systolic blood pressure” value in data set [3] is reported as “Fluctuations in the blood pressure was not recognized”.
As for `COc1cc(/C=C/C(=O)O)ccc1O` [ferulic acid], in data set [3], the “fluctuation in systolic blood pressure” value is reported as “lowering in the blood pressure was recognized”. The “changing ratio” value is reported as 0% in data set [1] (setting [6]); −9.5% in data set [1] (time 0.5 after administration); −10.3% in data set [1] (time 1 after administration); −6.8% in data set [1] (time 2 after administration); −7.9% in data set [1] (time 4 after administration); −3.2% in data set [1] (time 6 after administration). In addition, the “blood level after the administration” value in data set [2] (setting [6]) came to 0; in data set [2] (time 3), 0.074; in data set [2] (time 6), 0.154; in data set [2] (time 9), 0.174; in data set [2] (time 12) it was 0.145; in data set [2] (time 24) it was 0. For the same compound, the concentration at 24 h in data set [4] turned out to be 104 ng/mL. In addition, the “time after which metabolism and excretion are completed” value in data set [5] is “about 4 hours”. Also, the “time at which the blood level reaches the maximum” value in data set [5] is reported as “about 2 hours”.
